According to US6414222B1, “Gene combinations for herbicide tolerance in corn” (Regents of the University of Minnesota, priority 1993, dated 2002):
Where two headings read alike, the source gives them in different places.

Columns and labels:
[1] = system: Homozygous tolerant S3 seedlings; assay: Foliar herbicide application, lethal rate; assay type: in vivo, maize (Zea mays L.); settings: for Lethal rates: Homozygous tolerant S3, average of two families, scored 21 days after treatment
Experimental: (§1) Foliar applications of the herbicides were made to greenhouse- or field-grown seedlings at the three- to five-leaf stage. Herbicides were applied in a spray volume of 187 l/ha that includes 2.3 l/ha crop oil concentrate to enhance uptake. Sethoxydim and haloxyfop were applied using commercial formulations (Poast from BASF Corp and Verdict from Dow Elanco, respectively). Visual observations were recorded 14-21 days after herbicide treatments.
(§2) For each mutant, two homozygous tolerant R4 families were derived from two different regenerated plants and two heterozygous F1 families were obtained from crosses of R3 homozygous tolerant lines with the susceptible inbreds A188 and A619. Sethoxydim and haloxyfop each were applied at rates ranging from 0.0034 to 7.0 kg/ha. For each genotype a five-rate doubling series was used to determine herbicide lethality. Because of the large differences between wildtype and mutants in herbicide susceptibility, the ranges of herbicide application rates were varied. Two five plant/pot replicates of each family were evaluated for each rate. Herbicide injury symptoms were scored visually 21 days after herbicide treatment. The lethal rate was considered to be the lowest application rate resulting in death of all seedlings in the four replications of each homozygous tolerant genotype or in the eight replications of the heterozygous combinations.

[2] = system: Homozygous tolerant H1 seedlings; assay: Foliar herbicide application, lethal rate; assay type: in vivo, maize (Zea mays L.); settings: Homozygous tolerant H1, average of two families; scored 21 days after treatment
Experimental: as §1, §2

[3] = system: Homozygous tolerant H2 seedlings; assay: Foliar herbicide application, lethal rate; assay type: in vivo, maize (Zea mays L.); settings: for Fold increase in tolerance compared to the wildtype: H2 seedlings; for Lethal rates: Homozygous tolerant H2, average of two families, scored 21 days after treatment
Experimental: as §1, §2

[4] = system: Heterozygous tolerant Inbred × H1 seedlings; assay: Foliar herbicide application, lethal rate; assay type: in vivo, maize (Zea mays L.); settings: Heterozygous tolerant Inbred × H1, average of A188- and A619-derived F1 families
Experimental: as §1, §2

[5] = system: Heterozygous tolerant Inbred × H2 seedlings; assay: Foliar herbicide application, lethal rate; assay type: in vivo, maize (Zea mays L.); settings: Heterozygous tolerant Inbred × H2, average of A188- and A619-derived F1 families
Experimental: as §1, §2

[6] = system: Homozygous tolerant S2 seedlings; assay: Foliar herbicide application, lethal rate; assay type: in vivo, maize (Zea mays L.); settings: for Lethal rates: Homozygous tolerant S2, average of two families, scored 21 days after treatment
Experimental: as §1, §2

[7] = system: Heterozygous tolerant Inbred × S2 seedlings; assay: Foliar herbicide application, lethal rate; assay type: in vivo, maize (Zea mays L.); settings: Heterozygous tolerant Inbred × S2, average of A188- and A619-derived F1 families
Experimental: as §1, §2

[8] = system: Heterozygous tolerant Inbred × S3 seedlings; assay: Foliar herbicide application, lethal rate; assay type: in vivo, maize (Zea mays L.); settings: Heterozygous tolerant Inbred × S3, average of A188- and A619-derived F1 families
Experimental: as §1, §2

[9] = system: Wildtype (A188 and A619) seedlings; assay: Foliar herbicide application, lethal rate; assay type: in vivo, maize (Zea mays L.); settings: average response of A188 and A619, scored 21 days after treatment
Experimental: as §1, §2

[10] = system: cell line 2167-9/2160-154 H-2; assay: Callus herbicide tolerance, line H-2; assay type: cell-based, maize; settings: cell line H-2
Experimental: (§3) Tolerant cell line 2167-9/2160-154 S-2 (“S-2”) was characterized to evaluate: (1) the magnitude of sethoxydim tolerance; (2) cross-tolerance of haloxyfop; and (3) the biochemical basis for the tolerance. Callus tissue from S-2 that had been maintained on 10 μM sethoxydim was transferred to media containing up to 100 μM sethoxydim. One-half gram of S-2 tissue was plated on a 7 cm filter paper as a lawn overlaying 50 ml agar-solidified culture medium containing 0, 0.5, 1.0, 2.0, 5.0, 10.0, 50.0 and 100 μM sethoxydim, and cultured for two weeks. Control cell line 2167-9/2160-154 was plated similarly on medium containing the same levels of sethoxydim. The control cell line growth after two weeks was inhibited 50% at 1 μM sethoxydim.
(§4) The tolerant callus cultures were characterized to determine the magnitude of sethoxydim and haloxyfop tolerance. Callus tissue from these lines was evaluated in experiments as described above in the characterization of line 2167-9/2160-154 S-2.

[11] = system: cell line 2167-9/2160-154 S-1; assay: Callus herbicide tolerance, line S-1; assay type: cell-based, maize; settings: cell line S-1
Experimental: as §3, §4

[12] = system: cell line 2167-9/2160-154 H-1; assay: Callus herbicide tolerance, line H-1; assay type: cell-based, maize; settings: cell line H-1
Experimental: as §3, §4

[13] = system: control cell line 2167-9/2160-154; assay: Callus growth on herbicide medium, control line; assay type: cell-based, maize; settings: for IC50: read-out: Herbicide concentration inhibiting growth 50%
Experimental: A selection protocol to identify and isolate herbicide-tolerant maize cells was developed to minimize the adverse effects of high herbicide concentrations on somatic embryo development and plant regeneration capacity. The procedure involved exposing tissue to gradually increasing concentrations of herbicide beginning with a sethoxydim concentration representing 1/20th of lethal dose and doubling the herbicide concentration at approximately two-week intervals until the lethal dose (10 μM sethoxydim) was reached. In this way, the herbicide was allowed to take effect slowly with continuous selection pressure, thus permitting herbicide-tolerant cells to accumulate over time while not affecting the potential for plant regeneration.
Approximately 100 grams of vigorously growing, regenerable, friable, embryogenic maize callus tissue established from an F1 immature embryo resulting from the cross A188×B73 were transferred to agar-solidified maintenance medium (Armstrong and Green, Planta, 164, 207 (1985)) in petri plates containing 0.5 μM sethoxydim (BASF) (Parsippany, N.J.). This callus line was designated 2167-9/2160-154. Forty plates were prepared and five clumps of callus tissue weighing about 0.5 grams each were placed on each plate. The 0.5 μM sethoxydim concentration was chosen from growth inhibition studies to provide less than 10-20% growth inhibition during the first two weeks of herbicide exposure. After 14 days, 0.25-0.5 gram pieces of tissue showing vigorous growth rate and retention of embryogenic morphology (i.e., presence of somatic embryos) were subcultured on fresh medium containing 1.0 μM sethoxydim. Eighty plates containing five pieces of tissue per plate were prepared. For each subsequent transfer, all callus tissue showing growth and somatic embryo forming ability was placed on fresh media containing a two-fold increased sethoxydim concentration. Therefore, callus was transferred at two-week intervals to petri plates containing 0.5, 1.0, 2.0, 5.0 and 10.0 μM sethoxydim. During the course of the selection process, the total number of lines decreased as the herbicide-mediated growth inhibition became more intense. […] These lines were designated 2167-9/2160-154 S-1 and 2167-9/2160-154 S-2.
Tolerant cell line 2167-9/2160-154 S-2 (“S-2”) was characterized to evaluate: (1) the magnitude of sethoxydim tolerance; (2) cross-tolerance of haloxyfop; and (3) the biochemical basis for the tolerance. Callus tissue from S-2 that had been maintained on 10 μM sethoxydim was transferred to media containing up to 100 μM sethoxydim. One-half gram of S-2 tissue was plated on a 7 cm filter paper as a lawn overlaying 50 ml agar-solidified culture medium containing 0, 0.5, 1.0, 2.0, 5.0, 10.0, 50.0 and 100 μM sethoxydim, and cultured for two weeks. […]

| SMILES | Lethal rates [1] | Lethal rates [2] | Fold increase in tolerance compared to the wildtype [3] | Lethal rates [3] | Lethal rates [4] | Lethal rates [5] | Lethal rates [6] | Lethal rates [7] | Lethal rates [8] | Lethal rates [9] | Fold increase in herbicide concentration that results in a 50% reduction in growth vs unselected control cell line [10] | Fold increase in herbicide concentration that results in a 50% reduction in growth vs unselected control cell line [11] | Fold increase in herbicide concentration that results in a 50% reduction in growth vs unselected control cell line [12] | also measured |
| --- | --- | --- | --- | --- | --- | --- | --- | --- | --- | --- | --- | --- | --- | --- |
| CC(Oc1ccc(Oc2ncc(C(F)(F)F)cc2Cl)cc1)C(=O)O (stereo not shown) [Haloxyfop, 2-[4-[[3-chloro-5-(trifluoromethyl)-2-pyridinyl]oxy]phenoxy]-propanoic acid] | 0.22 kg/ha | 0.11 kg/ha | about 16 fold | 0.22 kg/ha | 0.11 kg/ha | 0.11 kg/ha | 0.22 kg/ha | 0.11 kg/ha | 0.11 kg/ha | 0.014 kg/ha | 4 fold | 4^1 fold | 61 fold | Fold increase in herbicide concentration that results in a 50% reduction in growth vs unselected control cell line ([10]; listed as haloxyfop): four-fold increase; Fold increase in herbicide concentration that results in a 50% reduction in growth vs unselected control cell line ([11]; listed as haloxyfop): four-fold increase; Fold increase in herbicide concentration that results in a 50% reduction in growth vs unselected control cell line ([12]; listed as haloxyfop): ~60 fold; IC50 ([13]; Zea mays, 336 h, control callus, growth after two weeks): 20 nM |
| CCCC(=NOCC)C1=C(O)CC(CC(C)SCC)CC1=O (stereo not shown) [Sethoxydim, 2-[1-(ethoxyimino)-butyl]-5-[2-(ethylthio)propyl]-3-hydroxy-2-cyclohexen-1-one] | >7.0 kg/ha | 0.055 kg/ha | about 16 fold | 0.88 kg/ha | 0.055 kg/ha | 0.22 kg/ha | >7.0 kg/ha | ≧1.8 kg/ha | ≧1.8 kg/ha | 0.055 kg/ha | 0 fold | ~100 fold | 0 fold | Fold increase over the lethal rate for wildtype plants ([1]; homozygous S3 seedlings, not killed at 7 kg/ha): ≥ 127 fold; Fold increase over the lethal rate for wildtype plants ([6]; homozygous S2 seedlings, not killed at 7 kg/ha): ≥ 127 fold; Fold increase in herbicide concentration that results in a 50% reduction in growth vs unselected control cell line ([10]; listed as sethoxydim): Neither haloxyfop selected line showed a significant degree of sethoxydim tolerance; Fold increase in herbicide concentration that results in a 50% reduction in growth vs unselected control cell line ([12]; listed as sethoxydim): Neither haloxyfop selected line showed a significant degree of sethoxydim tolerance; inhibition at 0.5 µM ([13]; Zea mays, 336 h, read-out: Growth inhibition): 10 to 20%; IC50 ([13]; Zea mays, 336 h): 1000 nM; Lethal dose for callus tissue ([13]; tissue culture selection protocol): 10 µM |
